Like-named read-outs stand apart in the source and are kept apart here.
Experiments:
[1] = biological target: phosphorylated Btk at Tyr223 in Ramos cells (Homo sapiens (Human), UniProt Q06187); assay: BTK pY223 cellular assay (HTRF) in Ramos cells; assay type: cell-based; conditions: 1 hour compound incubation, pervanadate or Na3VO4 stimulation
Experimental: Btk pY223 cellular assay is a HTRF based assay intended to determine the endogenous levels of phosphorylated Btk at Tyr223.
Briefly, Ramos cells were serum starved in 0.5% FBS-containing RPMI1640 for 2 hours. Following starvation, the cells were incubated with compounds to be detected at various concentrations in a CO2 incubator for 1 hour. After incubation, cells were stimulated with 1 mM pervanadate (PV) or Na3VO4 (OV) for 20 min. Then, the cells were spinned down and lysed with 1× lysis buffer at RT for 10 min (4× lysis buffer supplied in the kit). During the incubation, 1× antibody mix was prepared by diluting anti-Btk-d2 and anti-pBtk-K in detection buffer (supplied in the kit). […] After that, 18 ul of cell lysate was transferred to the assay plate pre-loaded with antibody solution. After mixing gently and spinning briefly, the plate was sealed up and kept in dark at RT for 18 hours. […] IC50 values were calculated with GraphPad Prism software using the sigmoidal dose-response function.

Recombinant Btk = Recombinant Btk (Homo sapiens (Human), UniProt Q06187); assay: BTK kinase assay (TR-FRET); conditions: 1 hour pre-incubation, ATP at Km
Chain of Recombinant Btk (Q06187 whole entry): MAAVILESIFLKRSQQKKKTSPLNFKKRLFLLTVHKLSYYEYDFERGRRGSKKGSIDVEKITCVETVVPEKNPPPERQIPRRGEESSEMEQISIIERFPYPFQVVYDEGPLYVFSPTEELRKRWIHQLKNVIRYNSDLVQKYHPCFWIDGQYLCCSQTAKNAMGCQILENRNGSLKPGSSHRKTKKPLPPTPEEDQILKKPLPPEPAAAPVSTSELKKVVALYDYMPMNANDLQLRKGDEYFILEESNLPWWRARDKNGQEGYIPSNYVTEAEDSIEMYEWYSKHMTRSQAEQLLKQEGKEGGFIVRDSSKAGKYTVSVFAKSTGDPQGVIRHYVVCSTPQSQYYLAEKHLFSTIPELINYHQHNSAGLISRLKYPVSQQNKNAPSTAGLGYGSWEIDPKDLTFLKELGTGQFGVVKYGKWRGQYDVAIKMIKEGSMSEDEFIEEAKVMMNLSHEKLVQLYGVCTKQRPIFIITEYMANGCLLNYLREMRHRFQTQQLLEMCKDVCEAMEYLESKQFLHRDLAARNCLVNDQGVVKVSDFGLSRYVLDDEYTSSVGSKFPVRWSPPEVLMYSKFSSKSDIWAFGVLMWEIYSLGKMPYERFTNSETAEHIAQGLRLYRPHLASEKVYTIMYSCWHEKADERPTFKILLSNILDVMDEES

Chain of phosphorylated Btk at Tyr223 in Ramos cells (Q06187 whole entry): as above

Question: For `C=CC(=O)Nc1ccccc1C1CCNc2c(C(N)=O)c(-c3ccc(OCc4ccccc4)cc3)nn21` (single isomer, unassigned) [Compound 10a], which IC50 [1] is on record?
Answer: 2.2 nM

Question: And the IC50 (Recombinant Btk; IC50 (nM) Btk)?
Answer: 0.51 nM

Question: With `C=CC(=O)N1CC[C@@H]2C(CNc3c(C(N)=O)c(-c4ccc(Oc5ccccc5)cc4)nn32)C1` (single isomer, unassigned) [Compound 30a] as the compound, how does the IC50 [1] read?
Answer: 5.6 nM

Question: And the IC50 (Recombinant Btk; read-out: IC50 (nM) Btk)?
Answer: 0.66 nM

Question: Which IC50 (Recombinant Btk; read-out: IC50 (nM) Btk) does the source give for `N#CCC(=O)N1CCC([C@@H]2CCNc3c(C(N)=O)c(-c4ccc(Oc5ccccc5)cc4)nn32)CC1` [Compound 180, (S)-7-(1-(2-Cyanoacetyl)piperidin-4-yl)-2-(4-phenoxyphenyl)-4,5,6,7-tetrahydropyrazolo[1,5-a]pyrimidine-3-carboxamide] here?
Answer: 87 nM

Question: How did the IC50 (Recombinant Btk; read-out: IC50 (nM) Btk) turn out when `N#CC(=CC1CC1)C(=O)N1CCC([C@@H]2CCNc3c(C(N)=O)c(-c4ccc(Oc5ccccc5)cc4)nn32)CC1` [Compound 181, (S)-7-(1-(2-cyano-3-cyclopropylacryloyl)piperidin-4-yl)-2-(4-phenoxyphenyl)-4,5,6,7-tetrahydropyrazolo[1,5-a]pyrimidine-3-carboxamide] was run?
Answer: 25 nM

Question: How did the IC50 (Recombinant Btk; read-out: IC50 (nM) Btk) turn out when `N#CN1CCC([C@@H]2CCNc3c(C(N)=O)c(-c4ccc(Oc5ccccc5)cc4)nn32)CC1` [Compound 182, (S)-7-(1-cyanopiperidin-4-yl)-2-(4-phenoxyphenyl)-4,5,6,7-tetrahydropyrazolo[1,5-a]pyrimidine-3-carboxamide] was run?
Answer: 124 nM

Question: Which IC50 (Recombinant Btk; read-out: IC50 (nM) Btk) does the source give for `CC#CC(=O)N1CC(C2CCNc3c(C(N)=O)c(-c4ccc(Oc5ccccc5)cc4)nn32)C1` (centres unmarked) [Compound 184, 7-(1-(But-2-ynoyl)azetidin-3-yl)-2-(4-phenoxyphenyl)-4,5,6,7-tetrahydropyrazolo[1,5-a]pyrimidine-3-carboxamide] here?
Answer: 4.7 nM

Question: `CC#CC(=O)NCC1CCNc2c(C(N)=O)c(-c3ccc(Oc4ccccc4)cc3)nn21` (centres unmarked) [Compound 185, 7-(But-2-ynamidomethyl)-2-(4-phenoxyphenyl)-4,5,6,7-tetrahydropyrazolo[1,5-a]pyrimidine-3-carboxamide] was tested. Which IC50 (Recombinant Btk; read-out: IC50 (nM) Btk) did it give?
Answer: 4.3 nM

Question: How did the IC50 (Recombinant Btk; read-out: IC50 (nM) Btk) turn out when `CCC#CC(=O)N1CCC([C@@H]2CCNc3c(C(N)=O)c(-c4ccc(Oc5ccccc5)cc4)nn32)CC1` [Compound 186, (S)-7-(1-(Pent-2-ynoyl)piperidin-4-yl)-2-(4-phenoxyphenyl)-4,5,6,7-tetrahydropyrazolo[1,5-a]pyrimidine-3-carboxamide] was run?
Answer: 1.1 nM

Question: How did the IC50 (Recombinant Btk; read-out: IC50 (nM) Btk) turn out when `NC(=O)c1c(-c2ccc(Oc3ccccc3)cc2)nn2c1NCC[C@H]2C1CCN(C(=O)C#CCN2CCCC2)CC1` [Compound 187, (S)-2-(4-Phenoxyphenyl)-7-(1-(4-(pyrrolidin-1-yl)but-2-ynoyl)piperidin-4-yl)-4,5,6,7-tetrahydropyrazolo[1,5-a]pyrimidine-3-carboxamide] was run?
Answer: 2.1 nM

Question: How did the IC50 (Recombinant Btk; read-out: IC50 (nM) Btk) turn out when `CN(C)CC#CC(=O)N1CCC([C@@H]2CCNc3c(C(N)=O)c(-c4ccc(Oc5ccccc5)cc4)nn32)CC1` [Compound 188, (S)-7-(1-(4-(Dimethylamino)but-2-ynoyl)piperidin-4-yl)-2-(4-phenoxyphenyl)-4,5,6,7-tetrahydropyrazolo[1,5-a]pyrimidine-3-carboxamide] was run?
Answer: 1.1 nM

Question: Which IC50 (Recombinant Btk; read-out: IC50 (nM) Btk) does the source give for `CC#CC(=O)N1CC(C2CCNc3c(C(N)=O)c(-c4ccc(Oc5ccc(F)cc5F)cc4)nn32)C1` (centres unmarked) [Compound 189, 7-(1-(But-2-ynoyl)azetidin-3-yl)-2-(4-(2,4-difluorophenoxy)phenyl)-4,5,6,7-tetrahydropyrazolo[1,5-a]pyrimidine-3-carboxamide] here?
Answer: 42 nM

Question: For `CC#CC(=O)NCC1CCNc2c(C(N)=O)c(-c3ccc(Oc4ccc(F)cc4F)cc3)nn21` (centres unmarked) [Compound 190, 7-(But-2-ynamidomethyl)-2-(4-(2,4-difluorophenoxy)phenyl)-4,5,6,7-tetrahydropyrazolo[1,5-a]pyrimidine-3-carboxamide], which IC50 (Recombinant Btk; read-out: IC50 (nM) Btk) is on record?
Answer: 38 nM

Question: With `NC(=O)c1c(-c2ccc(Oc3ccccc3)cc2)nn2c1NCC[C@H]2C1CCN(C(=O)C#CCO)CC1` [Compound 191, (S)-7-(1-(4-Hydroxybut-2-ynoyl)piperidin-4-yl)-2-(4-phenoxyphenyl)-4,5,6,7-tetrahydropyrazolo[1,5-a]pyrimidine-3-carboxamide] as the compound, how does the IC50 (Recombinant Btk; read-out: IC50 (nM) Btk) read?
Answer: 0.67 nM

Question: With `COCC#CC(=O)N1CCC([C@@H]2CCNc3c(C(N)=O)c(-c4ccc(Oc5ccccc5)cc4)nn32)CC1` [Compound 192, (S)-7-(1-(4-Methoxybut-2-ynoyl)piperidin-4-yl)-2-(4-phenoxyphenyl)-4,5,6,7-tetrahydropyrazolo[1,5-a]pyrimidine-3-carboxamide] as the compound, how does the IC50 (Recombinant Btk; read-out: IC50 (nM) Btk) read?
Answer: 0.91 nM

Question: For `CCCC#CC(=O)N1CCC([C@@H]2CCNc3c(C(N)=O)c(-c4ccc(Oc5ccccc5)cc4)nn32)CC1` [Compound 193, (S)-7-(1-(Hex-2-ynoyl)piperidin-4-yl)-2-(4-phenoxyphenyl)-4,5,6,7-tetrahydropyrazolo[1,5-a]pyrimidine-3-carboxamide], which IC50 (Recombinant Btk; read-out: IC50 (nM) Btk) is on record?
Answer: 3.9 nM

Question: With `CC#CC(=O)N1CCC(C2CCNc3c(C(N)=O)c(-c4ccc(Oc5ccc(F)cc5)cc4)nn32)CC1` (centres unmarked) [Compound 194, 7-(1-(But-2-ynoyl)piperidin-4-yl)-2-(4-(4-fluorophenoxy)phenyl)-4,5,6,7-tetrahydropyrazolo[1,5-a]pyrimidine-3-carboxamide] as the compound, how does the IC50 (Recombinant Btk; read-out: IC50 (nM) Btk) read?
Answer: 45 nM

Question: With `CC#CC(=O)N1CCC(C2CCNc3c(C(N)=O)c(-c4ccc(Oc5cccc(Cl)c5)cc4)nn32)CC1` (centres unmarked) [Compound 195, 7-(1-(But-2-ynoyl)piperidin-4-yl)-2-(4-(3-chlorophenoxy)phenyl)-4,5,6,7-tetrahydropyrazolo[1,5-a]pyrimidine-3-carboxamide] as the compound, how does the IC50 (Recombinant Btk; read-out: IC50 (nM) Btk) read?
Answer: 8 nM

Question: How did the IC50 (Recombinant Btk; read-out: IC50 (nM) Btk) turn out when `C=CC(=O)Nc1ccccc1C1CCNc2c(C(N)=O)c(-c3ccc(F)c(Cl)c3)nn21` (centres unmarked) [Compound 196, 7-(2-Acrylamidophenyl)-2-(3-chloro-4-fluorophenyl)-4,5,6,7-tetrahydropyrazolo[1,5-a]pyrimidine-3-carboxamide] was run?
Answer: 1.1 nM
